Measurements: article PMC12648368 (British Journal of Clinical Pharmacology, 2025)
“Also recorded” adds a separate entry of the source. Where two headings read alike, the source gives them in different places.

Assays:
[1] = in vivo; cited from earlier work
[2] = Population pharmacokinetic model of plasma atazanavir and ritonavir concentrations, DERIVE study (ATV/r with or without rifampicin); conditions: for Vd / bioavailability / clearance: human, plasma, oral; for Effect of increasing rifampicin dose on clearance, bioavailability / pharmacokinetics: rifampicin 1200 mg QD vs 600 mg QD, ATV/r BID; for Fold‐change in CL for ATV/r BID + RIF: ATV/r 300/100 mg BID with rifampicin; for Fold‐change in CL for ATV/r QD + RIF: rifampicin 600 mg QD added to ATV/r
[3] = Effect-compartment model of intracellular PBMC concentrations, DERIVE study; type: in vivo, human; conditions: for Equilibration half‐life, t 1/2 (plasma to PBMC) / half-life / Kp: PBMC effect compartment, estimate (95% CI); for half-life / Kp: human, oral; for half-life: PBMC, read-out: Equilibration half‐life, t 1/2 (plasma to PBMC) (converted); for Kp: read-out: Pseudo‐partition coefficient, PPC (ratio of drug in PBMC to plasma)
Procedure: Pharmacokinetic sampling was conducted over four visits. […] The rifampicin dose was increased to 1200 mg once daily (QD) for 1 week. […] Dolutegravir was maintained for an additional 2 weeks. […] Blood samples were centrifuged and stored at -80 °C prior to shipment and assay at the University of Cape Town, where drug concentrations were measured using high-performance liquid chromatography with tandem mass spectrometry (HPLC MS/MS). […] Atazanavir and ritonavir pharmacokinetic models were separately developed using […] data. We tested one- and two-compartment disposition models with linear elimination, and delayed absorption modelled by a lag time or series of transit compartments. PBMC concentrations were modelled using a hypothetical effect compartment connected to the central compartment of the plasma model. An equilibration half-life (t1/2) and a pseudopartition coefficient (PPC) were used to parameterize the rate of drug entry into the PBMC compartment and its accumulation ratio between the PBMC and plasma, respectively (Figure S1).

[4] = design: method as in earlier work; conditions: fixed in the previously published model; cited from earlier work
[5] = clinical; conditions: human, in vivo
[6] = system: plasma proteins; conditions: cited from earlier work
[7] = Final atazanavir model applied to atazanavir-only data (without ritonavir) of the ACTG A5231 study
Procedure: Atazanavir was administered with or without rifampicin in three periods: 300 mg BID for 8 days (period 1), 300 mg BID with rifampicin 600 mg QD for 11 days (period 2) and 400 mg BID with rifampicin 600 mg QD for 8 days (period 3).[30] Pharmacokinetic sampling was conducted at the end of each period, with blood collected 15 min predose and at 1‐, 2‐, 3‐, 4‐, 5‐, 6‐, 8‐, 10‐, 12‐, and 24‐h postdose. Plasma samples were analysed at the University of Alabama using HPLC with UV detection (LLOQ 0.025 mg/L).[30]
The final atazanavir model, developed with DERIVE data, was applied to the A5231 dataset. We made the following adjustment to our model to account for the differences between the two studies.
All fixed parameters are estimates from DERIVE study population.

[8] = system: HIV‐1; conditions: against HIV‐1; cited from earlier work
[9] = Inter compartmental clearance, typical participant 67 kg, fat‐free mass 42 kg, estimate (95% CI)
[10] = typical participant 67 kg, fat‐free mass 42 kg, estimate (95% CI)
[11] = estimate (95% CI), listed as atazanavir

CC(C)c1nc(CN(C)C(=O)N[C@H](C(=O)N[C@@H](Cc2ccccc2)C[C@H](O)[C@H](Cc2ccccc2)NC(=O)OCc2cncs2)C(C)C)cs1 [Ritonavir, ritonavir]
Time to steady‐state concentrations [1]: about 2 weeks | Bioavailability decreased to, with rifampicin ([2]; ATV/r QD + rifampicin, relative to ATV/r without rifampicin): 31% | BOV in F ([2]; estimate (95% CI)): 55.5 (48.1‐63.8) % CV | BOV in MTT ([2]; estimate (95% CI)): 43.6 (37.7‐51.6) % CV | Between occasion variability (BOV) in k a ([2]; estimate (95% CI)): 82.3 (67.3‐99.1) % CV | Between subject variability in clearance ([2]; estimate (95% CI)): 16.4 (12.3‐21.8) % CV | Change in F for ATV/r BID + RIF ([2]; estimate (95% CI)): −33.3 (−46.6 −10.9) % | Change in F for ATV/r QD + RIF ([2]; estimate (95% CI)): −68.8 (−75.2 −58.5) % | Mean absorption transit time, MTT ([2]; estimate (95% CI)): 0.483 (0.428‐0.545) h | Transit compartments, NN ([2]; estimate (95% CI)): 12.3 (6.64‐17.7) n | Vd [2]: 55.4 L | bioavailability [2]: 100% | clearance ([2]; Clearance, CL, ATV/r 300/100 mg QD without rifampicin, typical participant 67 kg, fat‐free mass 42 kg, typical estimate (95% CI)): 161 mL/min | clearance [2, 9]: 26 mL/min | Effect of increasing rifampicin dose on clearance, bioavailability / pharmacokinetics [2]: no further effect | Volume of distribution (peripheral compartment) [2, 10]: 70.1 (39.7‐125) L | Equilibration half‐life, t 1/2 (plasma to PBMC) [3]: 1.40 (1.38‐1.63) h | half-life [3]: ~1 h | Kp [3]: 1.68

CO[C@H]1/C=C/O[C@@]2(C)Oc3c(C)c(O)c4c(O)c(c(/C=N/N5CCN(C)CC5)c(O)c4c3C2=O)NC(=O)/C(C)=C\C=C\[C@H](C)[C@H](O)[C@@H](C)[C@@H](O)[C@@H](C)[C@H](OC(C)=O)[C@@H]1C [rifampicin]
Unbound fraction of rifampicin, fu [4]: 0.2 (fixed) fraction | Km [5]: 4.9 µg/mL | Vd [5]: 44.7 L | clearance [5]: 550 mL/min | BOV in MTT (estimate (95% CI)): 46.8 (40.0 – 56.8) % CV | BOV in ka (estimate (95% CI)): 104 (85.3 – 136) % CV | Between occasion variability (BOV) in F (estimate (95% CI)): 22.0 (17.9 – 26.3) % CV | Between subject variability in clearance (estimate (95% CI)): 27.7 (22.1 – 35.2) % CV | Mean absorption transit time, MTT (estimate (95% CI)): 0.502 (0.447 – 0.558) h | Transit compartments, NN (estimate (95% CI)): 20.3 (15.8 – 25.9) n | Bioavailability, F (human, in vivo): 1 (fixed) fraction

COC(=O)N[C@H](C(=O)N[C@@H](Cc1ccccc1)[C@@H](O)CN(Cc1ccc(-c2ccccn2)cc1)NC(=O)[C@@H](NC(=O)OC)C(C)(C)C)C(C)(C)C [Atazanavir, atazanavir]
Bound to plasma proteins [6]: about 86% | Fold-change in CL due to absence of ritonavir ([7]; A5231 all PK visits vs ATV/r without rifampicin (DERIVE visit 1), estimate (95% CI)): 2.13 (1.88 – 2.34) -fold | BOV in F ([7]; human, in vivo): 58.3 (46.4 – 73.5) % CV | BOV in MTT ([7]; human, in vivo): 48.1 (36.9 – 63.4) % CV | Between occasion variability (BOV) in k a ([7]; human, in vivo): 101 (fixed) % CV | Between subject variability in clearance ([7]; human, in vivo): 18.8 (13.7 – 24.4) % CV | Change in F with rifampicin ([7]; human, in vivo): -55.3 (-64.0 – -46.2) % | Change in ka with rifampicin ([7]; human, in vivo): -70.8 (fixed) % | Clearance, CL ([7]; human, in vivo): 7.55 (fixed) L/h | MTT longer in A5231 compared to DERIVE ([7]; human, in vivo): 2.5 ‐fold | Mean absorption transit time, MTT ([7]; human, in vivo): 1.38 (1.15 – 1.61) h | Reduction in bioavailability when rifampicin was coadministered ([7]; human, in vivo): 55% | Transit compartments, NN ([7]; human, in vivo): 10 (fixed) n | Vd ([7]; human, in vivo): 77.3 L | Volume of distribution (peripheral compartment) ([7]; human, in vivo): 48.9 (fixed) L | bioavailability ([7]; human, in vivo): 100% | clearance ([7]; human, in vivo): 58.5 mL/min | Protein‐adjusted in vitro 90% inhibitory concentration (PA‐IC90) [8]: 0.014 µg/mL | Fold‐change in CL for ATV/r BID + RIF ([2]; estimate (95% CI)): 2.03 (1.82‐2.25) ‐fold | Fold‐change in CL for ATV/r BID + RIF [2, 11]: 2 ‐fold | Clearance, CL ([2]; ATV/r 300/100 mg QD without rifampicin, typical participant 67 kg, fat‐free mass 42 kg, typical estimate (95% CI)): 7.57 (6.42‐9.06) L/h | Effect of doubling ATV/r dosing frequency on bioavailability ([2]; ATV/r BID with standard dose rifampicin): restored atazanavir bioavailability | Effect of TDF on clearance and bioavailability ([2]; co-medication tenofovir disoproxil fumarate): affected neither | BOV in F ([2]; estimate (95% CI)): 48.2 (40.7‐53.6) % CV | BOV in MTT ([2]; estimate (95% CI)): 59.4 (49.3‐73.6) % CV | Between occasion variability (BOV) in k a ([2]; estimate (95% CI)): 97.9 (80.8‐125) % CV | Between subject variability in clearance ([2]; estimate (95% CI)): 27.6 (19.7‐36.7) % CV | Between visit variability in clearance ([2]; estimate (95% CI)): 17.5 (14.4‐24.5) % CV | Change in F for ATV/r QD + RIF ([2]; estimate (95% CI)): −52.5 (−62.5 −41.4) % | Change in k a due to RIF ([2]; estimate (95% CI)): −67.3 (−76.2 −53.2) % | Mean absorption transit time, MTT ([2]; estimate (95% CI)): 0.499 (0.429‐0.574) h | Transit compartments, NN ([2]; fixed in the model): 10 Fixed n | Vd [2]: 77.5 L | bioavailability [2]: 100% | clearance [2, 9]: 52.2 mL/min | Fold‐change in CL for ATV/r QD + RIF ([2]; estimate (95% CI)): 3.05 (2.67‐3.45) ‐fold | Fold‐change in CL for ATV/r QD + RIF [2, 11]: 3 ‐fold | Effect of increasing rifampicin dose on clearance, bioavailability / pharmacokinetics [2]: no significant effect | Reduction of bioavailability by rifampicin ([2]; rifampicin added to standard ATV/r QD regimen): 53% | Volume of distribution (peripheral compartment) [2, 10]: 42.1(26.6‐79.0) L | Equilibration half‐life, t 1/2 (plasma to PBMC) [3]: 0.963 (0.546‐1.51) h | Effect of rifampicin on PBMC equilibration t 1/2 and PPC (intracellular accumulation) ([3]; addition of rifampicin to the regimen): did not affect the ratio of atazanavir concentration between PBMCs and plasma; also recorded: neither of which were affected; also recorded: does not affect the intracellular accumulation of atazanavir | half-life [3]: ~1 h | Kp [3]: 0.653
